Experimental findings from patent US9376436B2, “2-(pyridin-2yl)-1, 7-diaza-spiro [4.4] nonane-6-one compound as voltage-gated sodium channels modulators” (CONVERGENCE PHARMACEUTICALS LIMITED, priority 2011, dated 2016) are described below.

This experiment has as its target T1, hNaV1.7 (Homo sapiens, UniProt Q15858).
T1 construct: expressed in transfected cells; host or cells: HEK293
As to the kind of experiment: QPatch NaV1.7 assay (whole-cell patch clamp, QPatch16x). It counts as cell-based. Particulars: HEK293-hNaV1.7 cells. Here is the method: The compounds of the invention were tested in a QPatch NaV1.7 assay.
HEK293-hNaV1.7 cells were grown in DMEM-F12+10% FBS culture media at 37° C. At a confluency of 50-70% cells were dissociated from culture flasks & triturated to ensure unicellular cell suspension; cell density was measured & adjusted to 2-3×10^6 cells/ml. Recordings were obtained using QPatch16x. The external solution was (in mM): NaCl, 128; KCl, 5; MgCl2, 2; CaCl2, 2; Glucose, 30; HEPES, 15; pH 7.3, 305-315 mOsm. Following seal formation and whole-cell access using internal solution (containing in mM: CsF, 135; EGTA/CsOH, 1/5; HEPES 10; NaCl, 10; pH 7.3, 310-320 mOsM), voltage pulse protocols were applied. Initially a steady state inactivation voltage protocol was used to determine the half-maximal voltage for steady state inactivation (V1/2 SSI). Two holding voltages were used to determine test drug inhibition: −90 mV, where most of the channels are in a closed state; and V1/2 SSI, where half of the channels are inactivated. Currents were elicited […] by stepping to a membrane potential of 0 mV for 20 ms. Four-point cumulative concentration responses were derived by determining the peak current amplitude at each concentration of test drug over 120 second application. Curves were fitted with the Hill equation yielding pIC50 values at −90 mV and V1/2 SSI holding potentials.

Where [1] appears, read: holding voltage V1/2 SSI (half of channels inactivated), read-out: QP Nav1.7 SSI vhalf pIC50 (converted).
[2] abbreviates: holding voltage −90 mV (most channels closed), read-out: QP Nav1.7 −90 mV pIC50 (converted).

Counter-ions that a name gives are not always drawn. Like-named read-outs stand apart in the source and are kept apart here.

T1 sequence (Q15858 whole entry): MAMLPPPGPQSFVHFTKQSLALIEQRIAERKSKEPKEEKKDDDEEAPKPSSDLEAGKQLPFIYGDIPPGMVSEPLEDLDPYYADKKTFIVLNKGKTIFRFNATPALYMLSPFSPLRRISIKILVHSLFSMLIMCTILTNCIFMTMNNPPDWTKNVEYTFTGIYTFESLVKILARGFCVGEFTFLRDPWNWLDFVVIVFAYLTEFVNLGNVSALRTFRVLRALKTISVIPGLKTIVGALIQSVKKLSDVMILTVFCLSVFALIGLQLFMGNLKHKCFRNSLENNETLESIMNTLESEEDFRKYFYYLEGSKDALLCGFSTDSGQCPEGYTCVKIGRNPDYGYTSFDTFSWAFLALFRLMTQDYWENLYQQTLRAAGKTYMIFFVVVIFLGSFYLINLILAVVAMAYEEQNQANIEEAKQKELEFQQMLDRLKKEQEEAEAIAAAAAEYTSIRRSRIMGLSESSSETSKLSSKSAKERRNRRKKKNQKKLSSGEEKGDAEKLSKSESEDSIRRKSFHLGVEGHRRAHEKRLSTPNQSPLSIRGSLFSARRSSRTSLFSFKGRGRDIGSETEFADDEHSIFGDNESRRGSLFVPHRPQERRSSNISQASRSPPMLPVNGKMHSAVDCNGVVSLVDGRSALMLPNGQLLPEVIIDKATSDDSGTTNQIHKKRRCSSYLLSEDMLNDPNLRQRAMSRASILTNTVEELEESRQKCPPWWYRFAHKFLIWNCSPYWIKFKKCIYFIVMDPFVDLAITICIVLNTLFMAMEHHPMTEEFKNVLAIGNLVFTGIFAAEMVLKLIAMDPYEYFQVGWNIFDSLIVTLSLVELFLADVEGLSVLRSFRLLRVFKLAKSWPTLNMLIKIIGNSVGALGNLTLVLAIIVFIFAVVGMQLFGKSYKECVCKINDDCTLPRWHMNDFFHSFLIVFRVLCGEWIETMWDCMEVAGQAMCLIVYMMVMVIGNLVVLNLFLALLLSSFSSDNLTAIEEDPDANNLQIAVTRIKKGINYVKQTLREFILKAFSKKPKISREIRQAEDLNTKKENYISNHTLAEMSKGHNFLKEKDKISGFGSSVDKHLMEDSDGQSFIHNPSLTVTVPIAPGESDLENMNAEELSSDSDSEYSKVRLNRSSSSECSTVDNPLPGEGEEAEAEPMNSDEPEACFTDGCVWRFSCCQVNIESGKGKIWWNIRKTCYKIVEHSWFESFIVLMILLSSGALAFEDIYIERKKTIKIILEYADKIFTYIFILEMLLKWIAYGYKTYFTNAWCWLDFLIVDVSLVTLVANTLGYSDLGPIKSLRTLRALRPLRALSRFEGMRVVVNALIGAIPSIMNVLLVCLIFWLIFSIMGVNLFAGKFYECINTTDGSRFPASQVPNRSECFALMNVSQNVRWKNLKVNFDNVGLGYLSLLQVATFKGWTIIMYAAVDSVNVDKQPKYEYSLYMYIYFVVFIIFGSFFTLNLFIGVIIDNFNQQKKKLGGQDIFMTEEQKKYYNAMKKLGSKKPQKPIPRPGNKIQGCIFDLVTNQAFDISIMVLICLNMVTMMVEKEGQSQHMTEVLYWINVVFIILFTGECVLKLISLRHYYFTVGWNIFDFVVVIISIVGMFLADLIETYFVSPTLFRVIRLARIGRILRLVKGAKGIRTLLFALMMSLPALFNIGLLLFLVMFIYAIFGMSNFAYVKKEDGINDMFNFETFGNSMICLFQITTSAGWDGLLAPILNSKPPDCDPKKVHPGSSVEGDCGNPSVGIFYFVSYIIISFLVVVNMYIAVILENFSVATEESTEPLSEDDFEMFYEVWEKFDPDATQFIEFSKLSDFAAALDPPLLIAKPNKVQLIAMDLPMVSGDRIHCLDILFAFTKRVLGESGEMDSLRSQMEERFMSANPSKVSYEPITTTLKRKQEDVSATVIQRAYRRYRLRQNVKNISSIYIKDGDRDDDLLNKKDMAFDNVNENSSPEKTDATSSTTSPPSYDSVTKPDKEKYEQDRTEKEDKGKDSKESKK

`CN1CC[C@@]2(CC(F)(F)C(c3cc(-c4ccc(C(F)(F)F)cc4)ccn3)N2)C1=O` (mixture of isomers) [Example 240, (5R)-3,3-Difluoro-7-methyl-2-[4-[4-(trifluoromethyl)phenyl]-2-pyridyl]-1,7-diazaspiro[4.4]nonan-6-one hydrochloride]: the IC50 is 1.58 µM under setting [1] and 31.6 µM under setting [2].

Consider `CCOc1ccc(F)c(-c2cc(C)nc(C3CCC4(CCN(C)C4=O)N3)c2C)c1` (mixture of isomers) [Example 256, 2-[4-(5-Ethoxy-2-fluoro-phenyl)-3,6-dimethyl-2-pyridyl]-7-methyl-1,7-diazaspiro[4.4]nonan-6-one hydrochloride], for which the IC50 by setting is: under setting [1], 2.51 µM; under setting [2], 20 µM.

For `CN1CC[C@@]2(CC(F)C(c3cc(-c4ccc(C(F)(F)F)cc4)ccn3)N2)C1=O` (single isomer, unassigned) [Example 238, hydrochloride], the IC50 was 2 µM under setting [1] and 50.1 µM under setting [2].

Regarding `CN1CC[C@@]2(CC(F)C(c3cc(-c4ccc(C(F)(F)F)cc4)ccn3)N2)C1=O` (single isomer, unassigned) [Example 239], the IC50 was 15.8 µM under setting [1] and 251 µM under setting [2].

Turning to `CCOc1ccc(F)c(-c2cc(OC)nc([C@H]3CC[C@]4(CCN(C)C4=O)N3)c2)c1` (single isomer, unassigned) [Example 247, hydrochloride], the IC50 reads like this: under setting [1], 1.26 µM; under setting [2], 20 µM.

Turning to `CCOc1ccc(F)c(-c2cc(OC)nc([C@@H]3CC[C@]4(CCN(C)C4=O)N3)c2)c1` (single isomer, unassigned) [Example 248], the IC50 under setting [1] is 5.01 µM and the IC50 under setting [2] is 31.6 µM.

Consider `CN1CC[C@@]2(CC[C@H](c3cc(-c4cccc(OC(F)(F)F)c4)ccn3)N2)C1=O.Cl` [Example 1, (2R,5S)-7-Methyl-2-[4-[3-(trifluoromethoxy)phenyl]-2-pyridyl]-1,7-diazaspiro[4.4]nonan-6-one hydrochloride], for which, where the note is “holding voltage V1/2 SSI (half of channels inactivated)”, the “QP Nav1.7 SSI vhalf pIC50” value is on record as 5.5.

Turning to `Cc1cc(C)c(-c2ccnc([C@H]3CC[C@@]4(CCN(C)C4=O)N3)c2)c(C)c1` [Example 2, (2R,5S)-7-Methyl-2-[4-(2,4,6-trimethylphenyl)-2-pyridyl]-1,7-diazaspiro-[4.4]nonan-6-one hydrochloride], the IC50 was 20 µM under setting [1] and 200 µM under setting [2].

With `CN1CC[C@@]2(CC[C@H](c3cc(-c4ccccc4OC(F)(F)F)ccn3)N2)C1=O` [Example 3, (2R,5S)-7-Methyl-2-[4-[2-(trifluoromethoxy)-phenyl]-2-pyridyl]-1,7-diazaspiro-[4.4]nonan-6-one hydrochloride], the IC50 is 7.94 µM under setting [1] and 63.1 µM under setting [2].

For `CCOc1ccc(F)cc1-c1ccnc([C@H]2CC[C@@]3(CCN(C)C3=O)N2)c1` [Example 4, (2R,5S)-2-[4-(2-Ethoxy-5-fluoro-phenyl)-pyridin-2-yl]-7-methyl-1,7-diaza-spiro[4.4]nonan-6-one hydrochloride], the IC50 was 12.6 µM under setting [1] and 200 µM under setting [2].

As to `CN1CC[C@@]2(CC[C@H](c3cc(-c4ccc(OC(F)(F)F)cc4)ccn3)N2)C1=O` [Example 5, (2R,5S)-7-Methyl-2-[4-(4-trifluoro-methoxy-phenyl)-pyridin-2-yl]-1,7-diaza-spiro[4.4]nonan-6-one hydrochloride], the IC50 runs as follows: under setting [1], 3.98 µM; under setting [2], 25.1 µM.

Take `CN1CC[C@@]2(CC[C@H](c3cc(-c4ccccc4)ccn3)N2)C1=O` [Example 6, (2R,5S)-7-Methyl-2-(4-phenyl-pyridin-2-yl)-1,7-diaza-spiro[4.4]nonan-6-one hydrochloride]: the IC50 is 31.6 µM under setting [1] and 158 µM under setting [2].

For `CN1CC[C@@]2(CC[C@H](c3cc(-c4ccccc4C(F)(F)F)ccn3)N2)C1=O` [Example 7, (2R,5S)-7-Methyl-2-[4-[2-(trifluoro-methyl)phenyl]-2-pyridyl]-1,7-diazaspiro[4.4]nonan-6-one hydrochloride], the IC50 runs as follows: under setting [1], 31.6 µM; under setting [2], 100 µM.

On to `CCOc1ccc(F)c(-c2ccnc([C@H]3CC[C@@]4(CCN(C)C4=O)N3)c2)c1` [Example 8, (2R,5S)-2-[4-(5-Ethoxy-2-fluoro-phenyl)-2-pyridyl]-7-methyl-1,7-diazaspiro[4.4]nonan-6-one hydrochloride], for which the IC50 reads like this: under setting [1], 0.794 µM; under setting [2], 10 µM.

In the case of `CN1CC[C@@]2(CC[C@H](c3cc(-c4ccc(F)cc4F)ccn3)N2)C1=O` [Example 9, (2R,5S)-2-[4-(2,4-Difluorophenyl)-2-pyridyl]-7-methyl-1,7-diazaspiro[4.4]nonan-6-one hydrochloride], the IC50 by setting is: under setting [1], 63.1 µM; under setting [2], 1000 µM.

Regarding `COc1ccc(F)cc1-c1ccnc([C@H]2CC[C@@]3(CCN(C)C3=O)N2)c1` [Example 10, (2R,5S)-2-[4-(5-Fluoro-2-methoxy-phenyl)-2-pyridyl]-7-methyl-1,7-diazaspiro[4.4]nonan-6-one hydrochloride], the IC50 under setting [1] is 50.1 µM and the IC50 under setting [2] is 3980 µM.

As for `CN1CC[C@@]2(CC[C@H](c3cc(-c4ccc(F)c(F)c4)ccn3)N2)C1=O` [Example 11, (2R,5S)-2-[4-(3,4-Difluorophenyl)-2-pyridyl]-7-methyl-1,7-diazaspiro[4.4]nonan-6-one hydrochloride], the IC50 is, setting by setting: under setting [1], 25.1 µM; under setting [2], 200 µM.

Turning to `CN1CC[C@@]2(CC[C@H](c3cc(-c4ccc(C(F)(F)F)cc4F)ccn3)N2)C1=O` [Example 12, (2R,5S)-2-[4-[2-Fluoro-4-(trifluoromethyl)phenyl]-2-pyridyl]-7-methyl-1,7-diazaspiro[4.4]nonan-6-one hydrochloride], the IC50 by setting is: under setting [1], 10 µM; under setting [2], 50.1 µM.

Take `CN1CC[C@@]2(CC[C@H](c3cc(-c4ccc(Cl)cc4)ccn3)N2)C1=O` [Example 13, (2R,5S)-2-[4-(4-Chlorophenyl)-2-pyridyl]-7-methyl-1,7-diazaspiro[4.4]nonan-6-one hydrochloride]: the IC50 by setting is: under setting [1], 6.31 µM; under setting [2], 25.1 µM.

For `Cc1c(-c2ccc(C(F)(F)F)cc2)ccnc1[C@H]1CC[C@]2(CCN(C)C2=O)N1` [Example 14, (2R,5R)-7-Methyl-2-[3-methyl-4-[4-(trifluoromethyl)phenyl]-2-pyridyl]-1,7-diazaspiro[4.4]nonan-6-one hydrochloride], the IC50 was 10 µM under setting [1] and 63.1 µM under setting [2].

As for `Cc1c(-c2ccc(C(F)(F)F)cc2)ccnc1[C@@H]1CC[C@]2(CCN(C)C2=O)N1` [Example 15, (2S,5R)-7-Methyl-2-[3-methyl-4-[4-(trifluoromethyl)phenyl]-2-pyridyl]-1,7-diazaspiro[4.4]nonan-6-one hydrochloride], the IC50 by setting is: under setting [1], 6.31 µM; under setting [2], 25.1 µM.

Regarding `Cc1c(-c2ccc(C(F)(F)F)cc2)ccnc1[C@@H]1CC[C@@]2(CCN(C)C2=O)N1` [Example 16, (2S,5S)-7-Methyl-2-[3-methyl-4-[4-(trifluoromethyl)phenyl]-2-pyridyl]-1,7-diazaspiro[4.4]nonan-6-one hydrochloride], the IC50 under setting [1] is 12.6 µM and the IC50 under setting [2] was 100 µM.

With `Cc1c(-c2ccc(C(F)(F)F)cc2)ccnc1[C@H]1CC[C@@]2(CCN(C)C2=O)N1` [Example 17, (2R,5S)-7-Methyl-2-[3-methyl-4-[4-(trifluoromethyl)phenyl]-2-pyridyl]-1,7-diazaspiro[4.4]nonan-6-one hydrochloride], the IC50 under setting [1] was 3.16 µM and the IC50 under setting [2] was 20 µM.

`Cc1c(-c2ccc(F)cc2)ccnc1[C@@H]1CC[C@]2(CCN(C)C2=O)N1` [Example 18, (2S,5R)-7-Methyl-2-[3-methyl-4-[4-fluorophenyl]-2-pyridyl]-1,7-diazaspiro[4.4]nonan-6-one hydrochloride]: the IC50 was 31.6 µM under setting [1] and 794 µM under setting [2].

`Cc1c(-c2ccc(F)cc2)ccnc1[C@H]1CC[C@@]2(CCN(C)C2=O)N1` [Example 19, (2R,5S)-2-[4-(4-Fluorophenyl)-3-methyl-2-pyridyl]-7-methyl-1,7-diazaspiro[4.4]nonan-6-one hydrochloride]: the IC50 by setting is: under setting [1], 6.31 µM; under setting [2], 50.1 µM.

Take `Cc1c(-c2ccc(F)cc2)ccnc1[C@@H]1CC[C@@]2(CCN(C)C2=O)N1` [Example 20, (2S,5S)-2-[4-(4-Fluorophenyl)-3-methyl-2-pyridyl]-7-methyl-1,7-diazaspiro[4.4]nonan-6-one hydrochloride]: the IC50 is 31.6 µM under setting [1] and 316 µM under setting [2].

With `Cc1cc(-c2cc(C(F)(F)F)ccc2C#N)cc([C@@H]2CC[C@]3(CCN(C)C3=O)N2)n1` [Example 21, 2-[2-Methyl-6-[(2S,5R)-7-methyl-6-oxo-1,7-diazaspiro[4.4]-nonan-2-yl]-4-pyridyl]-4-(trifluoromethyl)-benzonitrile hydrochloride], the IC50 runs as follows: under setting [1], 31.6 µM; under setting [2], 794 µM.
